Data: patent publication US20240010961A1 (priority 2020, published 2024)
Where two headings read alike, the source gives them in different places.

Assays:
SAOS-LM7 (osteosarcoma) = settings: cited from earlier work
hepatocytes = assay: MOI validation: hepatocyte drug metabolism quantified in culture medium by liquid chromatography mass spectrometry; assay type: in vitro ADME; settings: hepatocytes in well insert, medium sampled 0.5-72 h
Description: The MOI can be validated for all drugs of interest prior to applying it to sarcoma organoids. In one embodiment, the validation process includes printing 1,000-20,000 hepatocytes in the well insert and incubating in medium for 72 hours. In some embodiments, between about 5,000 and about 10,000 hepatocytes are provided in the well insert. At the 0.5, 1, 2, 4, 8, 12, 24, 48 and 72 h time-points, culture medium is collected from the well. Liquid chromatography mass spectrometry can be used to quantify the parent compound, its metabolites, and their concentrations. The goal is to identify conditions that recreate in vivo drug metabolism. […] To optimize these parameters, the size, shape, and cell density of the well insert can be changed if necessary. Hepatocyte viability and proliferation can be assessed for each time-point by Calcein AM and propidium iodide staining as well as an ATP assay. Optimal hepatocyte conditions and incubation periods for each drug can then be used in subsequent experiments.

EW-7 (Ewing's sarcoma) = settings: EW-7 in mice; cited from earlier work

Description for tumor cells: Using the MOI device, tumor cells were co-cultured without, FIG. 12A, and with, FIG. 12B, liver organoid suspended on the MOI device.

SMILES	tumor cell viability (tumor cells; control, without liver organoid on the MOI device (FIG. 12A), logarithmically increasing concentration)	tumor cell viability (tumor cells; with MOI-device-supported liver organoid (FIG. 12B), higher CP concentrations)	sensitivity of cell line in mice (SAOS-LM7 (osteosarcoma))	fraction converted into chloro-acetaldehyde (hepatocytes)	sensitivity of cell line in mice (EW-7 (Ewing's sarcoma))
O=P1(N(CCCl)CCCl)NCCCO1 (centres unmarked) [cyclophosphamide]	not significantly diminished	decreased	–	–	–
O=P1(NCCCl)OCCCN1CCCl (centres unmarked) [ifosfamide]	–	–	sensitive	25-50%	sensitive
